# Results as given in patent publication US20090209525A1, “ENABLING METHODS TO IDENTIFY ALLOSTERIC MODULATORS OF RECEPTOR ACTIVITY” (priority 2006, published 2009).
# Molecular target: T1, rat M1 W101A receptor (Rattus norvegicus, UniProt P08482, W101A)
# T1 construct: expressed in transfected cells
# T1 sequence (P08482 1-460 W101A): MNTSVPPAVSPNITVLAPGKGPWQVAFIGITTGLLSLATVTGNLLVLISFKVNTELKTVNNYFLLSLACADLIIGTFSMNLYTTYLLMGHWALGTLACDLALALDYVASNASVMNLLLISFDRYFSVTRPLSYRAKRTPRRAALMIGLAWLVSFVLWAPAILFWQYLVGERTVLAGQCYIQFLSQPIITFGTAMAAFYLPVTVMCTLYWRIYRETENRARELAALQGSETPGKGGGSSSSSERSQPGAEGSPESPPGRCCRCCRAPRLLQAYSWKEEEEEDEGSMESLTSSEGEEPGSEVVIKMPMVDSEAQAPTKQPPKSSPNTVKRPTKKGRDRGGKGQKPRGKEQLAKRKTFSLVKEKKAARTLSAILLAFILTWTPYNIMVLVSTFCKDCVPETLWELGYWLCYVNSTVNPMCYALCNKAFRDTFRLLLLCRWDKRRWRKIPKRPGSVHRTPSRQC
# Experiment: Phosphatidyl inositol hydrolysis assay, W101A
# Format: cell-based
# Details: Table 6; for Shift: EC50 W101A divided by EC50 wild-type; for EC50 / Eff (%): PI hydrolysis, W101A; for Eff (%): relative to wild-type response to that ligand (clozapine: title says fold-response)
Shift,EC50 [nM],Eff (%),Structure (SMILES)
0.03,1.58,112 ± 6,"CCCCC1CCN(CCCN2C(=O)COc3cc(F)ccc32)CC1 [AC-260584, 4-[3-(4-Butyl-piperidin-1-yl)-propyl]-7-fluoro-4H-benzo [1,4]oxazin-3-one]"
6,316,54 ± 11,"Clc1ccc2c(c1)N=C(N1CCNCC1)c1ccccc1N2 [NDMC, 8-chloro-11-(1-piperazinyl)-5H-dibenzo [b,e] [1,4] diazepine]"
